Measurements from patent US20110082130A1 (LIGAND PHARMACEUTICALS, INC., priority 2006, published 2011).

molecular target: T1, chimeric human H3 receptor (Homo sapiens, UniProt Q9Y5N1); assay: Chimeric human H3 receptor GTP binding assay (agonist-stimulated GTP-gamma35S binding, Example 7); assay type: biochemical; conditions: assay of Example 7; "*" in Ki of Table II
T1 construct: made in house; host or cells: Sf9 insect cells (baculovirus); P2 membrane preparation
In short: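 Sf9 membranes co-expressing chimeric human H3 receptor and heterotrimeric G-protein, 35 μg/tube, in pH 7.4 Tris buffer with 10 μM GDP. Test compounds (10^−10–10^−6 M) competed against 1 μM histamine, […] GTP-gamma35S, 60 min at room temperature. Filter-bound radioactivity counted; IC50 converted to Ki by Cheng-Prusoff. Agonism/inverse agonism tested without histamine (EC50).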

T1 sequence (Q9Y5N1 with tags, fused parts or gaps): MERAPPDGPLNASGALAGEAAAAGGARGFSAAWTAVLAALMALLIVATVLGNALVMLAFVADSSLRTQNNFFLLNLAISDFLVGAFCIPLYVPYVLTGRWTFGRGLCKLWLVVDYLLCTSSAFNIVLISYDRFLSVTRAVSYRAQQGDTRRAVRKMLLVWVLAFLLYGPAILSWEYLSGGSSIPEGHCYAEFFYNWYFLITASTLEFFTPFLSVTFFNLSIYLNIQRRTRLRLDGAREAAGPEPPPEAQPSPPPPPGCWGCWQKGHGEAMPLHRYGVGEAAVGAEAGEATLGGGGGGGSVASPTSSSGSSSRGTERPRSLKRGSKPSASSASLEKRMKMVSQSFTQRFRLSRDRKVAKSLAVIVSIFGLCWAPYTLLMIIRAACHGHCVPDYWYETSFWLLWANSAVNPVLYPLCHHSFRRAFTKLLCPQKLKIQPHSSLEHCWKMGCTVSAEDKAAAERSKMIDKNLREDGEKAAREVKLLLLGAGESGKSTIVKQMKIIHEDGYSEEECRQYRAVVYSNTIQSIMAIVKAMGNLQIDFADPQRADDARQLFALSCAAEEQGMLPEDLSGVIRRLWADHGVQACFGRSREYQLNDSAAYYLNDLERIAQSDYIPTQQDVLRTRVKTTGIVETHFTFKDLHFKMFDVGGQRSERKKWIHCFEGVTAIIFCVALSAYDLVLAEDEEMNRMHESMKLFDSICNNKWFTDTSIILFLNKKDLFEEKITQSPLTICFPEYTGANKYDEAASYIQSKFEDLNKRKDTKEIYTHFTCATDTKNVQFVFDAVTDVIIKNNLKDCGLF

Ki, < 1000 nM:
O=C(CN1CCc2cc(-c3ccc4c(c3)OCO4)ccc2C1)N1CCN(C2CCCC2)CC1 [Compound 378, 6-(1,3-benzodioxol-5-yl)-2-[2-(4-cyclopentylpiperazin-1-yl)-2-oxoethyl]-1,2,3,4-tetrahydroisoquinoline]
O=C(CN1CCc2cc(-c3ccc4c(c3)OCCO4)ccc2C1)N1CCN(C2CCC2)CC1 [Compound 380, 2-[2-(4-cyclobutylpiperazin-1-yl)-2-oxoethyl]-6-(2,3-dihydro-1,4-benzodioxin-6-yl)-1,2,3,4-tetrahydroisoquinoline]
O=C(CN1CCc2cc(-c3ccc4c(c3)OCCO4)ccc2C1)N1CCN(C2CCCC2)CC1 [Compound 381, 2-[2-(4-cyclopentylpiperazin-1-yl)-2-oxoethyl]-6-(2,3-dihydro-1,4-benzodioxin-6-yl)-1,2,3,4-tetrahydroisoquinoline]
CC(C)N1CCN(C(=O)CN2CCc3cc(-c4ccc(S(C)(=O)=O)cc4)ccc3C2)CC1 [Compound 382, 2-[2-(4-isopropylpiperazin-1-yl)-2-oxoethyl]-6-[4-(methylsulfonyl)phenyl]-1,2,3,4-tetrahydroisoquinoline]
CCC(C)N1CCN(C(=O)CN2CCc3cc(-c4ccc(OC)nc4)ccc3C2)CC1 (centres unmarked) [Compound 383, 2-[2-(4-sec-butylpiperazin-1-yl)-2-oxoethyl]-6-(6-methoxypyridin-3-yl)-1,2,3,4-tetrahydroisoquinoline]
COc1ccc(-c2ccc3c(c2)CCN(CC(=O)N2CCN(C(C)C)CC2)C3)cn1 [Compound 386, 2-[2-(4-isopropylpiperazin-1-yl)-2-oxoethyl]-6-(6-methoxypyridin-3-yl)-1,2,3,4-tetrahydroisoquinoline]
CC(C)N1CCN(C(=O)CN2CCc3cc(-c4cncnc4)ccc3C2)CC1 [Compound 387, 2-[2-(4-isopropylpiperazin-1-yl)-2-oxoethyl]-6-pyrimidin-5-yl-1,2,3,4-tetrahydroisoquinoline]
CS(=O)(=O)c1ccc(-c2ccc3c(c2)CCN(CC(=O)N2CCN(C4CCC4)CC2)C3)cc1 [Compound 389, 2-[2-(4-cyclobutylpiperazin-1-yl)-2-oxoethyl]-6-[4-(methylsulfonyl)phenyl]-1,2,3,4-tetrahydroisoquinoline]
CS(=O)(=O)c1ccc(-c2ccc3c(c2)CCN(CC(=O)N2CCN(C4CCCC4)CC2)C3)cc1 [Compound 390, 2-[2-(4-cyclopentylpiperazin-1-yl)-2-oxoethyl]-6-[4-(methylsulfonyl)phenyl]-1,2,3,4-tetrahydroisoquinoline]
COc1ccc(-c2ccc3c(c2)CCN(CC(=O)N2CCN(C4CCCC4)CC2)C3)cn1 [Compound 391, 2-[2-(4-cyclopentylpiperazin-1-yl)-2-oxoethyl]-6-(6-methoxypyridin-3-yl)-1,2,3,4-tetrahydroisoquinoline]
O=C(CN1CCc2cc(-c3cncnc3)ccc2C1)N1CCN(C2CCCC2)CC1 [Compound 392, 2-[2-(4-cyclopentylpiperazin-1-yl)-2-oxoethyl]-6-pyrimidin-5-yl-1,2,3,4-tetrahydroisoquinoline]
O=C(CN1CCc2cc(-c3cncnc3)ccc2C1)N1CCN(C2CCCCC2)CC1 [Compound 393, 2-[2-(4-cyclohexylpiperazin-1-yl)-2-oxoethyl]-6-pyrimidin-5-yl-1,2,3,4-tetrahydroisoquinoline]
CS(=O)(=O)c1cccc(-c2ccc3c(c2)CCN(CC(=O)N2CCN(C4CCCC4)CC2)C3)c1 [Compound 394, 2-[2-(4-cyclopentylpiperazin-1-yl)-2-oxoethyl]-6-[3-(methylsulfonyl)phenyl]-1,2,3,4-tetrahydroisoquinoline]
CS(=O)(=O)c1cccc(-c2ccc3c(c2)CCN(CC(=O)N2CCN(C4CCCCC4)CC2)C3)c1 [Compound 395, 2-[2-(4-cyclohexylpiperazin-1-yl)-2-oxoethyl]-6-[3-(methylsulfonyl)phenyl]-1,2,3,4-tetrahydroisoquinoline]
